# Test results taken from patent publication US20240417735A1, “ORAL CODELIVERY OF 5-FLUOREURACIL AND Bcl2 siRNA TREATING STOMACH CANCER” (Board of Regents, The University of Texas System, priority 2023, published 2024).
# Legend:
# Bcl2 [1] = assay: Immunohistochemistry/immunofluorescence of Bcl2 in stomach sections; type: in vivo, C57BL/6 mice; conditions: anti-Bcl2 positive area vs whole section stained with DAPI
# Protocol: (§1) A stomach cancer mice model was developed by feeding N-methyl-N-nitrosourea (NMNU) with water (IACUC protocol no A-201019-A). The 6-week-old C57BL/6 mice were kept in a 12 hr light-12 hr dark cycle. The mice had unprotected access to food and water. NMNU was dissolved in distilled water available ad libitum, freshly prepared three times per week. The mice received 240 ppm NMNU in the drinking water over 5 weeks (every other week). Five weeks after NMNU administration, the mice were ready for the experiment, as the method was reported elsewhere. A total of 30 stomach cancer mice were prepared and divided randomly into […]—no treatment (control), 5FU, BG/5FU, siRNA, BG/siRNA, and BG/5FU/siRNA. Another group of healthy mice were used as a negative control without any treatment. […] Immediately after harvesting the size and weight of the stomach and intestine were measured. […]
# The stomach tissue was also utilized to analysis Bcl2 protein expression using immunohistochemistry (IHC). The anti-Bcl2 positive area was quantified in comparison to the whole tissue section stained with DAPI. […] To measure the relative expression of Bcl2 on the tissue section the data was calculated and compared with the stomach tissue collected from the healthy mice, where Bcl2 expression in healthy mice was considered as 100% (FIG. 5B). […]
# Ki67 = assay: Immunofluorescence of Ki67 in stomach sections; type: in vivo, C57BL/6 mice; conditions: vs whole tissue section DAPI stained
# Protocol: as §1
# Cell proliferation marker was measured by immunofluorescence assay to evaluate the antitumor effect of the formulations. […] The protein expression was quantified from immunofluorescence images. The area with Ki67 positive cells was measured in compared to the whole tissue section with DAPI stained. The area (%) of healthy, untreated, 5FU, BG/5FU, siRNA, BG/siRNA, and BG/5FU/siRNA was measured as 0.16%, 0.27%, 0.54%, 0.52%, 0.38%, 0.29%, and 0.03%, respectively. […]
# Bcl2 [2] = assay: Western blotting of Bcl2 in stomach tissue lysate; type: in vivo, C57BL/6 mice; conditions: healthy = 1
# Protocol: A stomach cancer mice model was developed by feeding N-methyl-N-nitrosourea (NMNU) with water (IACUC protocol no A-201019-A). The 6-week-old C57BL/6 mice were kept in a 12 hr light-12 hr dark cycle. The mice had unprotected access to food and water. NMNU was dissolved in distilled water available ad libitum, freshly prepared three times per week. The mice received 240 ppm NMNU in the drinking water over 5 weeks (every other week). Five weeks after NMNU administration, the mice were ready for the experiment, as the method was reported elsewhere. A total of 30 stomach cancer mice were prepared and divided randomly into […]—no treatment (control), 5FU, BG/5FU, siRNA, BG/siRNA, and BG/5FU/siRNA. Another group of healthy mice were used as a negative control without any treatment. To investigate therapeutic feasibility, 5FU (10 mg/kg) and siRNA (100 nM) was administered either orally (PO) or intravenously (IV). All the formulations were freshly prepared prior to administration. […] Immediately after harvesting the size and weight of the stomach and intestine were measured.
# The fresh frozen stomach tissue was homogenized using RIPA buffer with freshly prepared protease inhibitor in it. […] The supernatant was collected, and the total protein content was determined using Bradford's assay (Sigma-Aldrich). […] The band intensities were calculated using ImageJ software.
# [3] = tested on: stomach cancer mice model; assay: TUNEL assay of apoptosis in stomach tissue of stomach cancer mice; type: in vivo, C57BL/6 mice; conditions: relative to untreated control; oral, 5 doses every 3rd day
# Protocol: A stomach cancer mice model was developed by feeding N-methyl-N-nitrosourea (NMNU) with water (IACUC protocol no A-201019-A). The 6-week-old C57BL/6 mice were kept in a 12 hr light-12 hr dark cycle. The mice had unprotected access to food and water. NMNU was dissolved in distilled water available ad libitum, freshly prepared three times per week. The mice received 240 ppm NMNU in the drinking water over 5 weeks (every other week). Five weeks after NMNU administration, the mice were ready for the experiment, as the method was reported elsewhere. A total of 30 stomach cancer mice were prepared and divided randomly into 5 groups—no treatment (control), 5FU, BG/5FU, siRNA, BG/siRNA, and BG/5FU/siRNA. Another group of healthy mice were used as a negative control without any treatment. […] Immediately after harvesting the size and weight of the stomach and intestine were measured.
# A TUNEL assay was conducted to investigate the apoptosis within the tissue from the stomach of both healthy, untreated cancer, and treated cancer mice. […] Apoptosis was quantified by the mean fluorescent intensity and compared with healthy control and untreated control. The degree of apoptosis was calculated as 49, 107, 38, 62, and 131% for the 5FU, BG/5FU, siRNA, BG/siRNA, and BG/5FU/siRNA group relative to untreated control, respectively.
# [4] = tested on: stomach cancer mice model; assay: H&E histology of stomach; type: in vivo, C57BL/6 mice; conditions: 10× magnification, whole tumor area
# Protocol: A stomach cancer mice model was developed by feeding N-methyl-N-nitrosourea (NMNU) with water (IACUC protocol no A-201019-A). The 6-week-old C57BL/6 mice were kept in a 12 hr light-12 hr dark cycle. The mice had unprotected access to food and water. NMNU was dissolved in distilled water available ad libitum, freshly prepared three times per week. The mice received 240 ppm NMNU in the drinking water over 5 weeks (every other week). Five weeks after NMNU administration, the mice were ready for the experiment, as the method was reported elsewhere. A total of 30 stomach cancer mice were prepared and divided randomly into […]—no treatment (control), 5FU, BG/5FU, siRNA, BG/siRNA, and BG/5FU/siRNA. Another group of healthy mice were used as a negative control without any treatment. To investigate therapeutic feasibility, 5FU (10 mg/kg) and siRNA (100 nM) was administered either orally (PO) or intravenously (IV). All the formulations were freshly prepared prior to administration. Formulations were administered orally on every 3rd day for the subsequent 5 cycles over 15 days. The animals were sacrificed 72 hr after the last treatment followed by the organ harvest and blood collection for further studies. Immediately after harvesting the size and weight of the stomach and intestine were measured. […]
# [5] = tested on: advanced colorectal cancer; conditions: cited from earlier work
# [6] = Ex vivo diffusion study in porcine intestine lumen; type: in vitro ADME; conditions: for distribution in intestine layers (fluorescence): with BG
# Text: The mucoadhesiveness and intestinal transportation of hydrophobic small molecule were further confirmed by an ex vivo diffusion study in a porcine intestine lumen. As the mucous layer is a barrier for hydrophobic molecules, to check how it crosses through the epithelial layer with assistance of BG we have used coumarin-6, a small molecule hydrophobic fluorescent dye with similar chemical and physical properties (molecular weight and hydrophobicity) as 5FU, for ease of visualization and detection purpose. […] The same tissue was subjected to be observed under a ChemiDoc imager to capture the fluorescence signal within the cross-sectioned of the intestinal lumen and similar result was observed. With time (30 min, 2 hr, and 12 hr) more coumarin-6 were distributed throughout the intestine which is an indication and confirmation of BG's ability to facilitate intestinal transportation of hydrophobic payload (FIG. 2C).
SMILES,area percentage of Bcl2 antibodies (Bcl2 [1]) [%],area of Ki67 positive cells (Ki67) [%],Relative expression of Bcl2 (WB) (Bcl2 [2]),degree of apoptosis (mean fluorescent intensity) [3] [%],tumor in stomach by H&E [4],treatment response rate [5],distribution in intestine layers (fluorescence) ([6]; 2nd hr),distribution in intestine layers (fluorescence) ([6]; 12th hr),diffusion through the intestinal layer ([6]; without BG)
"O=c1[nH]cc(F)c(=O)[nH]1 [5FU, 5-fluoreuracil]",1.22,0.54,1.24±0.11,49,tumor region got significantly reduced,10-15%,–,–,–
"CCN(CC)c1ccc2cc(-c3nc4ccccc4s3)c(=O)oc2c1 [coumarin-6, Coumarin 6]",–,–,–,–,–,–,observed within deeper layers of the intestine,incorporates evenly across the layers of the intestine,not able to diffuse through the intestinal layer
